Test results published in patent US9422357B2, “Glycosylated polypeptide and drug composition containing said polypeptide” (priority 2011, dated 2016).

How the values were obtained:
[1] = Pharmacokinetics test with rats (intravenous and subcutaneous administration); conditions: rat
Experimental: PBS solution was prepared by dissolving 1 tablet of Phosphate buffered saline (P4417 from Sigma) in 200 mL of ultrapure water.
0.2 mL of the collected blood was promptly mixed with 0.2 mL of the aprotinin-containing EDTA-PBS solution prepared in the above 68-1, and left on ice for 30 minutes or more. […] As blank plasma, plasma obtained by similarly treating the blood collected from untreated rat cervical vein was employed. Plasma samples were frozen in storage until employed for measurement. […] The standard solution for creating a standard curve was prepared as follows. First, the blank plasma obtained in the above 68-2 was diluted with the assay buffer supplied in the EIA kit similarly to the plasma sample, and this was used as the assay buffer for standard solution preparation (for example, when diluting the plasma sample to 100-fold, 1/100 amount of blank plasma was added to the assay buffer supplied in the EIA kit, and this was used as the assay buffer for standard solution preparation). […] Moreover, the predicted initial concentration (C0) was determined by the extrapolation method for intravenous administration, t1/2 and MRT were calculated, and the maximum plasma concentration (Cmax) was determined from the actual value for subcutaneous administration.
Moreover, the parameters obtained were employed to calculate bioavailability from the following mathematical formula. […]

amylase, LDH, CPK = assay: Gastrointestinal obstruction model, blood parameters (amylase, LDH, CPK); conditions: Table 10; rat gastrointestinal obstruction model
Experimental: This experimental line was carried out as a test line to evaluate the promotion of intestinal fluid absorption or the secretory suppressing action, using the change in the intestinal fluid weight in the jejunum after bowel obstruction as an indicator. Moreover, blood parameters of deviation enzymes amylase (pancreas), lactate dehydrogenase (LDH, liver), and creatine phosphokinase (CPK, skeletal muscle, cardiac muscle etc.) were measured as indicators of tissue disorders.
Anesthesia was introduced with inhalation of 2% isoflurane and laughing gas:oxygen=7:3, and this was maintained throughout the surgery. A median incision was made in the abdomen, and the jejunum at about 10 cm from the musculus suspensorius duodeni was ligated with a surgical suture. Then, the incision site was promptly sutured, and the rats were fasted until compound administration. […]
One hour after compound administration, a median incision was made in the abdomen under inhalation anesthesia, and 1.5 mL of blood was collected from the abdominal vena cava. […] The fluid and blood on the jejunum surface were removed with a paper towel, nerves, blood vessels, and fat attached to the jejunum was removed, this was cut into 6 cm lengths, and wet weight was measured. This was then dried at 36 degrees for 24 hours, and dry weight was measured. […]

Row | SMILES | C0, intravenous administration ([1]; Table 5D, no unit at the table (Table 4: nM), extrapolation) | C0, intravenous administration ([1]; Tables 5B-5F, no unit printed in these tables (Table 5A footnote: nM)) | LDH activity compared to the vehicle (amylase, LDH, CPK) | amylase activity compared to the vehicle (amylase, LDH, CPK)
1 | C[C@H](N)C(=O)NCC(=O)N[C@H]1CSSC[C@@H](C(=O)O)NC(=O)[C@H](CO)NC(=O)[C@H]([C@@H](C)O)NC(=O)[C@H](Cc2ccccc2)NC(=O)[C@H]([C@@H](C)O)NC(=O)[C@H](CCCCN)NC(=O)[C@H](Cc2c[nH]c3ccccc23)NC(=O)[C@H](Cc2ccccc2)NC(=O)[C@H](Cc2ccccc2)NC(=O)[C@H](CC(N)=O)NC(=O)[C@H](CCCCN)NC1=O [SRIF14] | 819 | 819 |  | 
2 | C[C@@H](O)[C@@H]1NC(=O)[C@H](CCCCN)NC(=O)[C@@H](Cc2c[nH]c3ccccc23)NC(=O)[C@H](Cc2ccccc2)NC(=O)[C@@H](NC(=O)[C@H](N)Cc2ccccc2)CSSC[C@@H](C(=O)N[C@H](CO)[C@@H](C)O)NC1=O [octreotide] |  |  | low value compared to the vehicle | equivalent to the vehicle
